Test results: patent US11518764B2, “Substituted heteroaryls as inhibitors of the BCL6 BTB domain protein-protein interaction” (Ontario Institute for Cancer Research (OICR), priority 2018, dated 2022)
Like-named read-outs stand apart in the source and are kept apart here.

Tests used:
BCL6 BTB domain = BCL6 BTB domain (Homo sapiens (Human), UniProt P41182); experiment: Surface plasmon resonance (SPR) assay; assay type: binding; settings: BCL6 BTB domain captured on SA chip, single cycle kinetics
[1] = test system: BCL6 reporter construct (3xBCL6-TK-Luc) in SuDHL4 cells; experiment: Cell-based luciferase assay
Method: Cell-Based Luciferase Assay
A BCL6 reporter construct containing three copies of the consensus BCL6 binding site, the TK promoter, and the firefly luciferase gene was stably expressed in SuDHL4 cells after lentivirus infection and selection with Blasticidin. SuDHL4-3×BCL6-TK-Luc cells were seeded into a Viewplate 384-well assay dish at 15,000 cells/well in 25 ul medium (Alpha-MEM high glucose containing 10% FBS, 25 mM HEPES, […] GlutaMAX, 100 ug/ml Normocin, and […] Gentamycin, Invitrogen). A HP D300 digital dispenser was used to dose cells with DMSO or test compounds across a 10-point range of concentrations (high dose of 10 uM), and cultures were grown in a humidified 5% CO2 incubator at 37° C. After two days, plates were removed from the incubator and equilibrated to room temperature. An equal volume of neolite reporter gene assay reagent was added to each well, and samples were processed according to manufacturer's instructions (Perkin Elmer). Luminescent signal was measured using an Envision plate reader equipped with a US-Luminescence detector.

Karpas422 cells = experiment: Tumor cell growth inhibition assay; assay type: cell-based
Method: Tumor Cell Growth inhibition Assay
Karpas422 cells were seeded into a 96-well plate at 2,000 cells/well in 150 ul medium (Alpha-MEM containing 10% FBS, […] Normocin, and […] Gentamycin, Invitrogen). A HP D300 digital dispenser was used to dose cells with DMSO or test compounds across a 10-point range of concentrations (high dose of 5 uM), and cultures were grown in a humidified 5% CO2 incubator at 37° C. After six days, plates were removed from incubator and equilibrated to room temperature. An equal volume of ATPlite assay reagent was added to each well, and samples were processed according to manufacturer's instructions (Perkin Elmer). Luminescent signal was measured using an Envision plate reader equipped with a US-Luminescence detector.

[2] = Homo sapiens, SU-DHL-4, 48 h, read-out: Luciferase-Assay EC50, uM), SuDHL4-3xBCL6-TK-Luc cells, two days, high dose 10 uM
[3] = Homo sapiens, KARPAS-422, 144 h, read-out: Tumor Growth Inhibition in Karpas-422 (IC50, uM), Karpas422 cells, six days, ATPlite

In the case of CN1CCC2(C1)CN(c1cc(NC(=O)Cn3cc(-c4cc(Cl)c(O)c(C(N)=O)c4)c4c(=O)n(C)cnc43)c(Cl)cn1)CCO2 (stereo not drawn) [Compound I-133], the Kd (BCL6 BTB domain) is reported as 30 nM, the EC50 [1, 2] is reported as 0.137 µM and the IC50 (Karpas422 cells; [3]) is reported as 0.199 µM.

Cn1c(NCCC(F)(F)F)nc2c(c(-c3cc(Cl)c(O)c(C(N)=O)c3)cn2CC(=O)Nc2cc(N3CCOCC3)ncc2Cl)c1=O [Compound I-134] gave a Kd (BCL6 BTB domain) of 97 nM, an EC50 [1, 2] of 0.477 µM and an IC50 (Karpas422 cells; [3]) of 0.57 µM.

Compound C[C@@H]1CCCN1c1cc(NC(=O)Cn2cc(-c3cc(Cl)c(O)c(C(N)=O)c3)c3c(=O)n(C)cnc32)c(Cl)cn1 [Compound I-135] has a Kd (BCL6 BTB domain) of 69 nM, an EC50 [1, 2] of 3.01 µM and an IC50 (Karpas422 cells; [3]) of 1.43 µM.

With C[C@H]1CCCN1c1cc(NC(=O)Cn2cc(-c3cc(Cl)c(O)c(C(N)=O)c3)c3c(=O)n(C)cnc32)c(Cl)cn1 [Compound I-136] the Kd (BCL6 BTB domain) was 55 nM, the EC50 [1, 2] was 0.578 µM and the IC50 (Karpas422 cells; [3]) was 0.96 µM.

For C[C@H]1COCCN1c1cc(NC(=O)Cn2cc(-c3cc(F)c(O)c(C(N)=O)c3)c3c(=O)n(C)ccc32)c(Cl)cn1 [Compound I-137], the Kd (BCL6 BTB domain) was 66 nM, the EC50 [1, 2] was 1.34 µM and the IC50 (Karpas422 cells; [3]) was 1.74 µM.

Work on C[C@H]1COCCN1c1cc(NC(=O)Cn2cc(-c3cc(Cl)c(O)c(C(N)=O)c3)c3c(=O)n(C)ccc32)c(Cl)cn1 [Compound I-138] yielded a Kd (BCL6 BTB domain) of 178 nM, an EC50 [1, 2] of 1.74 µM and an IC50 (Karpas422 cells; [3]) of 1.72 µM.

Cc1cc(-c2cn(CC(=O)Nc3cc(N4CCOC[C@@H]4C)ncc3Cl)c3ccn(C)c(=O)c23)cc(C(N)=O)c1O [Compound I-139] was tested, and the Kd (BCL6 BTB domain) was 3270 nM, the EC50 [1, 2] was 8.35 µM and the IC50 (Karpas422 cells; [3]) was > 10 µM.

With Cn1ccc2c(c(-c3cc(F)c(O)c(C(N)=O)c3)cn2CC(=O)Nc2cc(N3CCOCC3)ncc2Cl)c1=O [Compound I-140] the Kd (BCL6 BTB domain) was 317 nM, the EC50 [1, 2] was 1.33 µM and the IC50 (Karpas422 cells; [3]) was 1.28 µM.

With Cn1ccc2c(c(-c3cc(Cl)c(O)c(C(N)=O)c3)cn2CC(=O)Nc2cc(N3CCOCC3)ncc2Cl)c1=O [Compound I-141] the Kd (BCL6 BTB domain) was 265 nM, the EC50 [1, 2] was 1.83 µM and the IC50 (Karpas422 cells; [3]) was 1.02 µM.

Cc1cc(-c2cn(CC(=O)Nc3cc(N4CCOCC4)ncc3Cl)c3ccn(C)c(=O)c23)cc(C(N)=O)c1O [Compound I-142] was tested, and the Kd (BCL6 BTB domain) was 2200 nM, the EC50 [1, 2] was 4.02 µM and the IC50 (Karpas422 cells; [3]) was > 10 µM.

C[C@H]1COCCN1c1cc(NC(=O)Cn2cc(-c3cc(Cl)c(O)c(C(N)=O)c3)c3c(=O)[nH]cnc32)c(Cl)cn1 [Compound I-145] was tested, and the Kd (BCL6 BTB domain) was 6.09 nM, the EC50 [1, 2] was 0.303 µM and the IC50 (Karpas422 cells; [3]) was 0.551 µM.

CN1C(C)(C)CN(c2cc(NC(=O)Cn3cc(-c4cc(Cl)c(O)c(C(N)=O)c4)c4c(=O)n(C)cnc43)c(Cl)cn2)CC1(C)C [Compound I-146] showed a Kd (BCL6 BTB domain) of 18.4 nM, an EC50 [1, 2] of 0.182 µM and an IC50 (Karpas422 cells; [3]) of 0.121 µM.

Cn1cnc2c(c(-c3cc(Cl)c(O)c(C(N)=O)c3)cn2CC(=O)Nc2cc(N3CCOC(C)(C)C3)ncc2Cl)c1=O [Compound I-147] was tested, and the Kd (BCL6 BTB domain) was 19.6 nM, the EC50 [1, 2] was 0.144 µM and the IC50 (Karpas422 cells; [3]) was 0.0995 µM.

Work on CN(C1CCC(c2cc(NC(=O)Cn3cc(-c4cc(Cl)c(O)c(C(N)=O)c4)c4c(=O)n(C)cnc43)c(Cl)cn2)C1)S(C)(=O)=O (stereo not drawn) [Compound I-148] yielded a Kd (BCL6 BTB domain) of 20.9 nM, an EC50 [1, 2] of 1.31 µM and an IC50 (Karpas422 cells; [3]) of 0.541 µM.

CN(C1CCC(c2cc(NC(=O)Cn3cc(-c4cc(Cl)c(O)c(C(N)=O)c4)c4c(=O)n(C)cnc43)c(Cl)cn2)C1)S(C)(=O)=O (stereo not drawn) [Compound I-149] was tested, and the Kd (BCL6 BTB domain) was 16.3 nM, the EC50 ([1]; read-out: Luciferase-Assay EC50, SuDHL4-3xBCL6-TK-Luc cells, two days, high dose 10 uM) was 0.725 µM and the IC50 (Karpas422 cells; read-out: Tumor Growth Inhibition in Karpas-422 (IC50), Karpas422 cells, six days, ATPlite) was 0.617 µM.

With COC[C@@H]1COCCN1c1cc(NC(=O)Cn2cc(-c3cc(Cl)c(O)c(C(N)=O)c3)c3c(=O)n(C)cnc32)c(Cl)cn1 [Compound I-150] the Kd (BCL6 BTB domain) was 12.8 nM, the EC50 [1, 2] was 0.184 µM and the IC50 (Karpas422 cells; [3]) was 0.124 µM.

COC[C@H]1COCCN1c1cc(NC(=O)Cn2cc(-c3cc(Cl)c(O)c(C(N)=O)c3)c3c(=O)n(C)cnc32)c(Cl)cn1 [Compound I-151] showed a Kd (BCL6 BTB domain) of 10.6 nM, an EC50 [1, 2] of 0.168 µM and an IC50 (Karpas422 cells; [3]) of 0.144 µM.

Cn1cnc2c(c(-c3cc(Cl)c(O)c(C(N)=O)c3)cn2CC(=O)Nc2cc(N3Cc4ccncc4C3)ncc2Cl)c1=O [Compound I-152] gave a Kd (BCL6 BTB domain) of 20.7 nM, an EC50 [1, 2] of 0.168 µM and an IC50 (Karpas422 cells; [3]) of 0.134 µM.

COc1cc(-c2cn(CC(=O)Nc3cc(N4CCOC[C@@H]4C)ncc3Cl)c3ncn(C)c(=O)c23)cc(C(N)=O)c1O [Compound I-153] gave a Kd (BCL6 BTB domain) of 4.14 nM, an EC50 [1, 2] of 0.313 µM and an IC50 (Karpas422 cells; [3]) of 0.176 µM.
